Assays:
[1] = Stability test in H2O2 in PBS; assay type: physicochemical; settings: room temperature
Procedure: FIG. 2 illustrates the characterization of CDA with recombinant TEM-1 Bla, esterase, HRP, and H2O2. a) Stability test of CDA in different concentrations of H2O2 in PBS. The signal of PBS was subtracted and the absolute values were plotted. b) Fluorescence enhancement of CDA treated with esterase […], TEM-1 Bla (100 nM) and H2O2 (100 μM or 1 mM). c) Activation of CDA by esterase (1 μg/mL) and TEM-1 Bla (100 nM) with or without oxygen in the reaction. Glass flasks with working solution were continuously vacuumed to maintain a deoxidized environment. Samples were transferred and scanned immediate at each time point in a black 96 well plate. Error bars represent ±SD, n=3. d) Fluorescence enhancement of CDA treated with esterase (1 μg/mL), TEM-1 Bla (100 nM), HRP (1 unit/ml), and H2O2 (1 μM). e) Fluorescence enhancement of different concentrations of CDA treated with esterase (1 μg/mL), TEM-1 Bla (100 nM) and H2O2 (1 mM). f) Fluorescence enhancement of CDA treated with indicated amounts of β-lactamases, esterase (1 μg/mL) and H2O2 (1 mM) after incubation at room temperature for 2 h. […] Data were collected on a Tecan Safire microplate reader with excitation at 570 nm and emission at 600 nm. […]
As oxidation is the essential step in converting β-lactamase/esterase processed CDA to resorufin, the stability of CDA was evaluated in different concentrations of H2O2 (FIG. 2a). […]

E. coli/TEM-1 = assay: CDA detection of live E. coli expressing TEM-1 Bla; assay type: cell-based
Procedure: FIG. 3 illustrates the characterization of CDA with HRP, H2O2, E. coli expressing TEM-1 Bla (E. coli/TEM-1) and IMP-1 carbapenemase (E. coli/IMP-1), and K. pneumoniae expressing KPC carbapenemase (K. pneumoniae/KPC). a) Fluorescence enhancement of CDA incubated with different concentrations of E. coli expressing TEM-1 Bla. b) Fluorescence enhancement of CDA; HRP (1 unit/mL), H2O2 (1 μM), and either viable E. coli expressing TEM-1 Bla or bacterial lysate extracted from equal c.f.u. per milliliter. c) Fluorescence enhancement of CDA incubated with different concentrations of E. coli expressing TEM-1 Bla (H2O2, 1 mM). d) Fluorescent intensity of E. coli and E. coli/TEM-1 preincubated with CDA for 20 hours upon addition of H2O2 (500 μM) for 5 min. Error bars represent ±SD, n=3. * p<0.0332; **p<0.0021, ****p<0.0001, ns: not significant. e) Fluorescence enhancement of CDA incubated with different concentrations of E. coli expressing IMP-1 carbapenemase in the presence of H2O2 (1 mM). f) Fluorescence enhancement of CDA incubated with different concentrations of K. pneumoniae expressing KPC carbapenemase (H2O2, 1 mM). […] Data were collected on a Tecan Safire microplate reader with excitation at 570 nm and emission at 600 nm. […]
It was studied if CDA could report β-lactamase activity in live E. coli and Klebsiella pneumoniae (K. pneumoniae) which are commonly found in many infections. Three transformed E. coli strains expressing the most clinically prevalent β-lactamases including TEM-1 Bla (E. coli/TEM-1) and two carbapenemases were evaluated: a metallo-β-lactamase IMP-1 (E. coli/IMP-1) and a unique class A β-lactamase KPC-3 (E. coli/KPC-3) that hydrolyze carbapenem antibiotics. […]
To address the question of whether a higher concentration of H2O2 would equilibrate across membranes of viable bacteria and accelerate the oxidation of processed CDA, a serial dilution of H2O2 (100 μM, 500 μM, 1 mM, 2 mM) was incubated with CDA and different concentrations of E. coli and E. coli/TEM-1 for a longitudinal reading (FIGS. 3c, 21b, and 22). […]

CC(=O)Oc1ccc2c(c1)Oc1cc(OC(C)=O)ccc1N2C(=O)OCc1ccc(SCC2=C(C(=O)O)N3C(=O)[C@@H](NC(=O)Cc4ccccc4)[C@H]3SC2)cc1 [CDA, 3-(((4-(((3,7-diacetoxy-10H-phenoxazine-10-carbonyl)oxy)methyl)phenyl)thio)methyl)-8-oxo-7-(2-phenylacetamido)-5-thia-1-azabicyclo[4.2.0]oct-2-ene-2-carboxylic acid]
stability of the sulfur center in H2O2 (LC-MS) ([1]; H2O2 1 mM, 2 hours): stable | spontaneous hydrolysis in H2O2 ([1]; up to 1 mM H2O2 in PBS, within 2 hours): Almost no spontaneous hydrolysis | effect of adding HRP and H2O2 on fluorescence with viable bacteria (E. coli/TEM-1; HRP 1 unit/mL, H2O2 1 μM, bacteria not lysed): contributed little to the fluorescence increase | number of bacteria detectable in one 96 well (E. coli/TEM-1; factoring the 100 μL assay volume): 100 bacteria | bacteria concentration detectable (E. coli/TEM-1; noninduced E. coli/TEM-1, H2O2 1 mM, within 2-3 hours): 10^6-10^7 c.f.u./mL

Source: US20240240226A1, “FLUOROGENIC ASSAY FOR RAPID SCREENING OF BACTERIAL BETA-LACTAMASE ACTIVITY” (The Board of Trustees of the Leland Stanford Junior …, priority 2021, published 2024)
